Data taken from ChEMBL document CHEMBL4396925, “Malabaricone C as Natural Sphingomyelin Synthase Inhibitor against Diet-Induced Obesity and Its Lipid Metabolism in Mice” (ACS Med Chem Lett, 2019).
pIC50: −log10 of the molar value. Values belong to the compound of their own block, whether it stands above or below them. Calls of active or inactive are those of the source. The calls are words filed in the database; no cut-off is given here.

Key:
[1] = target: T1, Phosphatidylcholine:ceramide cholinephosphotransferase 1 (Homo sapiens, UniProt Q86VZ5); assay: Inhibition of SMS1 (unknown origin) stably expressed in mouse ZS cells using C6-NBD-ceramide as substrate preincubated for 30 mins followed by substrate addition and measured after 3 hrs by HPLC analysis; type: cell-based
T1 sequence (Q86VZ5 whole entry): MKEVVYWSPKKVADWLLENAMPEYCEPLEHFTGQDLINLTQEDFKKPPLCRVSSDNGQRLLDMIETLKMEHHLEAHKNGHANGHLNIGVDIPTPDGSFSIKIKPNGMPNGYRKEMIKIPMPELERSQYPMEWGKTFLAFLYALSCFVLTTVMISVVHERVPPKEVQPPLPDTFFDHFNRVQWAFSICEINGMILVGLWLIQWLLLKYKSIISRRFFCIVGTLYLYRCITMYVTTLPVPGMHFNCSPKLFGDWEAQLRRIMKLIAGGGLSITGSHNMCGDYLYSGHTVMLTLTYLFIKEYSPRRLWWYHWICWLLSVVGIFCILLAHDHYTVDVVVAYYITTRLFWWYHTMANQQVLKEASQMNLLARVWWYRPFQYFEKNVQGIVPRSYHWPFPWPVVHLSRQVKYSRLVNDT

[2] = target: T2, Phosphatidylcholine:ceramide cholinephosphotransferase 2 (Homo sapiens, UniProt Q8NHU3); assay: Inhibition of SMS2 (unknown origin) stably expressed in mouse ZS cells using C6-NBD-ceramide as substrate preincubated for 30 mins followed by substrate addition and measured after 3 hrs by HPLC analysis; type: cell-based
T2 sequence (Q8NHU3 whole entry): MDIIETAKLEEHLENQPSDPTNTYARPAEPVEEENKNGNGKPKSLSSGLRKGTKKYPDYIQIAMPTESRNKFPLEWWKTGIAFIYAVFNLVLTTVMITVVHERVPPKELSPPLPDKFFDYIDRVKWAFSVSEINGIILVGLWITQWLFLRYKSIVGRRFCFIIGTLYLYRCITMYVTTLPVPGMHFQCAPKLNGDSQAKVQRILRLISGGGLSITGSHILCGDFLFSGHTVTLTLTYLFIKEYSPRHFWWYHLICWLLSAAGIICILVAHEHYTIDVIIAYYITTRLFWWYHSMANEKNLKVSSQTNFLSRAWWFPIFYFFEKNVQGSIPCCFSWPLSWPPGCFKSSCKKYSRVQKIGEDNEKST

[3] = target: T1, Phosphatidylcholine:ceramide cholinephosphotransferase 1; assay: Noncompetitive inhibition of SMS1 (unknown origin) stably expressed in mouse ZS cells using 5 to 50 uM C6-NBD-ceramide as substrate preincubated for 30 mins followed by substrate addition and measured after 3 hrs by HPLC analysis; type: cell-based
[4] = target: T2, Phosphatidylcholine:ceramide cholinephosphotransferase 2; assay: Noncompetitive inhibition of SMS2 (unknown origin) stably expressed in mouse ZS cells using 5 to 50 uM C6-NBD-ceramide as substrate preincubated for 30 mins followed by substrate addition and measured after 3 hrs by HPLC analysis; type: cell-based
[5] = Toxicity in HFD-induced obese C57BL/6J mouse model assessed as induction of leaner phenotype measured over 2 months; details: in vivo, 1461 h
[6] = Toxicity in HFD-induced obese C57BL/6J mouse model assessed as effect on health measured over 2 months; details: in vivo, 1461 h
[7] = target: T3, Phosphatidylcholine:ceramide cholinephosphotransferase 1 (Mus musculus, UniProt Q8VCQ6); assay: Inhibition of SMS1 in MEF cells using C6-NBD-ceramide as substrate preincubated for 1 hr followed by substrate addition and measured after 1 hr by HPLC analysis; type: cell-based
T3 sequence (Q8VCQ6 whole entry): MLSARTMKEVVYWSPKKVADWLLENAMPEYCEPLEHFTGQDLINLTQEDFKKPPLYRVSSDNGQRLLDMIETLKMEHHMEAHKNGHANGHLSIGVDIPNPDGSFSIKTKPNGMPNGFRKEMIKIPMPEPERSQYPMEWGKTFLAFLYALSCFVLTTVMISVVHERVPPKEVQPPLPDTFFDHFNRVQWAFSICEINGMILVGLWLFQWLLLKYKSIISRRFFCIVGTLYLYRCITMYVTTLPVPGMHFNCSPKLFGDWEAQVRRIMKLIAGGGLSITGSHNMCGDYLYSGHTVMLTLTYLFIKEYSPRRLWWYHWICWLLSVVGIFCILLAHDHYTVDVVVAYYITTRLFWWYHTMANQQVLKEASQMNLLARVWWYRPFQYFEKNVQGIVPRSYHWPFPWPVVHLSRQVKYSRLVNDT

[8] = tested on: HepG2; assay: Lipid lowering activity in human HepG2 cells assessed as reduction in oleic acid-induced lipid droplet formation by nile red staining based fluorescence microscopic method; type: functional, cell-based
[9] = species: Mus musculus; assay: Antiobesity activity in HFD-induced obese C57BL/6J mouse model assessed as decrease in body weight measured after 20 days relative to control; type: functional; set-up: scale not given: the % may be the effect or the level left
[10] = species: Mus musculus; assay: Antiobesity activity in HFD-induced obese C57BL/6J mouse model assessed as resistance in steatosis development in liver by oil red O-staining based histopathological analysis; type: functional, organism-based
[11] = target: T4, Phosphatidylcholine:ceramide cholinephosphotransferase 2 (Mus musculus) (UniProt Q9D4B1); assay: Inhibition of SMS2 in HFD-induced obese C57BL/6J mouse liver tissue lysate using NBD-ceramide as substrate assessed as reduction in […] preincubated for 30 mins followed by substrate addition and measured after 3 hrs by HPLC analysis; type: subcellular
T4 sequence (whole entry): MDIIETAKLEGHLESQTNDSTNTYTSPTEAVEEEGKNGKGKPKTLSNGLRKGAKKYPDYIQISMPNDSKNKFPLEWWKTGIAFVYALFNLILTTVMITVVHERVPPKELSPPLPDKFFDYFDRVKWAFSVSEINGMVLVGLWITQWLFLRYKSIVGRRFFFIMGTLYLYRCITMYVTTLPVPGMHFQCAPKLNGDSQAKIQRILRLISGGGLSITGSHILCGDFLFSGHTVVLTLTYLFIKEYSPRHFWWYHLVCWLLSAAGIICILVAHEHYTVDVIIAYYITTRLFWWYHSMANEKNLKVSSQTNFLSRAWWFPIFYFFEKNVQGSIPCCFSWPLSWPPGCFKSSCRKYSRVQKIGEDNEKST

[12] = target: T5, Phosphatidylcholine:ceramide cholinephosphotransferase 1 (Mus musculus) (UniProt Q8VCQ6); assay: Inhibition of SMS1 in HFD-induced obese C57BL/6J mouse liver tissue lysate using […] as substrate assessed as reduction in SM synthesis preincubated for 30 mins followed by substrate addition and measured after 3 hrs by HPLC analysis; type: subcellular
T5 sequence (whole entry): T3 sequence (Q8VCQ6 whole entry)

[13] = species: Mus musculus; assay: Antiobesity activity in HFD-induced obese C57BL/6J mouse model assessed as reduction in free fatty acid level in plasma by ELISA; type: functional, organism-based
[14] = species: Mus musculus; assay: Antiobesity activity in HFD-induced obese C57BL/6J mouse model assessed as decrease in liver weight relative to control; type: functional, organism-based
[15] = tested on: HepG2; assay: Lipid lowering activity in human HepG2 cells assessed as reduction in oleic acid-induced intracellular TG accumulation by ELISA; type: functional, cell-based
[16] = species: Mus musculus; assay: Antiobesity activity in HFD-induced obese C57BL/6J mouse model assessed as improved lipid metabolism by oil red O-staining based histopathological analysis; type: functional, organism-based
[17] = Toxicity in HFD-induced obese C57BL/6J mouse model assessed as effect on behavior measured over 2 months; details: in vivo, 1461 h
[18] = tested on: MEF; assay: Cytotoxicity against MEF cells at 0.01 to 1 mM incubated for 3 hrs by CCK8 assay relative to control; type: cell-based; details: mouse, 1000 µM
[19] = species: Mus musculus; assay: Antiobesity activity in HFD-induced obese C57BL/6J mouse model assessed as reduction in TG level in liver by ELISA; type: functional, organism-based
[20] = tested on: Mus musculus; assay: Antiobesity activity in HFD-induced obese C57BL/6J mouse model assessed as increase in glucose tolerance administrated orally for 8 weeks and measured post treatment by OGTT assay; type: functional, organism-based
[21] = tested on: HepG2; assay: Lipid lowering activity in human HepG2 cells assessed as change in oleic acid-induced free fatty acid level by ELISA; type: functional, cell-based
[22] = species: Mus musculus; assay: Antiobesity activity in HFD-induced obese C57BL/6J mouse model assessed as reduction in TG level in plasma by ELISA; type: functional, organism-based
[23] = species: Mus musculus; assay: Antiobesity activity in HFD-induced obese C57BL/6J mouse model assessed as decrease fat content in liver; type: functional, organism-based
[24] = tested on: HepG2; assay: Lipid lowering activity in human HepG2 cells assessed as prevention in oleic acid-induced CD36/FAT activation; type: functional, cell-based
[25] = target: T6, Phosphatidylcholine:ceramide cholinephosphotransferase 2 (Mus musculus, UniProt Q9D4B1); assay: Inhibition of SMS2 in MEF cells using C6-NBD-ceramide as substrate preincubated for 1 hr followed by substrate addition and measured after 1 hr by HPLC analysis; type: cell-based
T6 sequence (Q9D4B1 whole entry): T4 sequence (whole entry)

[26] = Toxicity in HFD-induced obese C57BL/6J mouse model assessed as effect in daily food intake relative to control; details: in vivo

pIC50 [1]: 5.22
pIC50 [2]: 5.35
Compound: O=C(CCCCCCCCc1ccc(O)cc1)c1c(O)cc(O)cc1O

pIC50 [3]: 5.52 to 5.70
pIC50 [1]: 5.46
pIC50 [2]: 5.60
pIC50 [4]: 5.52 to 6.00
Compound: O=C(CCCCCCCCc1ccc(O)cc1)c1c(O)cccc1O [MALABARICONE B]

pIC50 [3]: 5.52 to 5.70
pIC50 [7]: 4.89
inhibition [11]: Active
inhibition [12]: Active
pIC50 [1]: 5.52
pIC50 [2]: 5.82
pIC50 [4]: 5.52 to 6.00
pIC50 [25]: 4.96
Compound: O=C(CCCCCCCCc1ccc(O)c(O)c1)c1c(O)cccc1O [MALABARICONE C]
Activity [5]: Toxic
Activity [6]: Non-Toxic
Activity [8]: Dose-dependent effect
Activity [9]: 42.7%
Activity [10]: Active
Activity [13]: Active
Activity [14]: Active
Activity [15]: Dose-dependent effect
Activity [16]: Active
Activity [17]: Non-Toxic
Activity [18]: 56 to 97%
Activity [19]: Active
Activity [20]: Active
Activity [21]: inactive
Activity [22]: Active
Activity [23]: Active
Activity [24]: Dose-dependent effect
Activity [26]: Non-Toxic

pIC50 [3]: 5.52 to 5.70
pIC50 [1]: 5.40
pIC50 [2]: 5.40
pIC50 [4]: 5.52 to 6.00
Compound: O=C(CCCCCCCCc1ccccc1)c1c(O)cccc1O [MALABARICONE A]
